Source: PubChem BioAssay (NCI)
Where “and” joins values, the source holds several entries; their conditions need not be identical. Equal values may be shown once.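 96-well plates; 48 h exposure; 5 concentrations. Endpoints by linear interpolation between flanking doses. Not reached: highest tested concentration assigned. GI50: concentration for 50% inhibition of growth. TGI marks complete inhibition of growth.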

Legend:
Assay in all cases: NCI anticancer screen, dose series, 48 h
OVCAR-4 ovarian = tested on: OVCAR-4 ovarian
HOP-62 NSCLC = tested on: HOP-62 NSCLC
HCC-2998 colon = tested on: HCC-2998 colon
NCI-H522 lung = tested on: NCI-H522 lung
SF-268 CNS = tested on: SF-268 CNS
KM12 colon = tested on: KM12 colon
HOP-92 NSCLC = tested on: HOP-92 NSCLC
MALME-3M melanoma = tested on: MALME-3M melanoma
TK-10 renal = tested on: TK-10 renal
HT29 colon = tested on: HT29 colon
HCT-116 colon = tested on: HCT-116 colon

Row | SMILES | TGI (OVCAR-4 ovarian) | TGI (HOP-62 NSCLC) | TGI (HCC-2998 colon) | TGI (NCI-H522 lung) | TGI (SF-268 CNS) | TGI (KM12 colon) | TGI (HOP-92 NSCLC) | TGI (MALME-3M melanoma) | TGI (TK-10 renal) [µM] | TGI (HT29 colon) | TGI (HCT-116 colon) | GI50 (HOP-62 NSCLC) [µM] | GI50 (HCC-2998 colon) [µM] | GI50 (NCI-H522 lung) [µM] | GI50 (SF-268 CNS) [µM] | GI50 (KM12 colon) [µM] | GI50 (HOP-92 NSCLC) [µM] | GI50 (MALME-3M melanoma) [µM] | GI50 (TK-10 renal) [µM] | GI50 (HCT-116 colon) [µM]
1 | O=C1CSC2(CCN(CCCN3c4ccccc4Sc4ccc(Cl)cc43)CC2)N1 | 23.1 µM | 25.5 µM | 14.4 µM | 23.6 µM | 26.6 µM | 19.1 µM | 20.3 µM | 24.4 µM | 21.2 | 11.9 µM | 19.4 µM | – | – | – | – | – | – | – | – | –
2 | O=C(CSC1=NCCN1)c1ccccc1 | > 100 µM | > 100 µM | – | > 100 µM | > 100 µM | > 100 µM | > 100 µM | > 100 µM | > 100 | > 100 µM | > 100 µM | – | – | – | – | – | – | – | – | –
3 | COC1C(O)=C2C(=O)OC(C)(O)/C=C/C=C\C=C/C=C/C(c3ccccc3)NC(=O)/C=C/C=C/C=C/C=C/C2(C)C1O (stereo not drawn) | 0.248 µM and 0.0594 µM | 0.212 µM and 0.193 µM | 0.146 µM and 0.048 µM | 0.038 µM and 0.11 µM | 0.156 µM and 0.127 µM | 0.117 µM and 0.148 µM | 0.00909 µM | 0.16 µM | 0.0668 | 0.0161 µM and 0.0687 µM | 0.0724 µM and 0.0739 µM | 0.041 | – | – | – | – | – | – | – | –
4 | CC1(C)N=C(N)N=C(N)N1c1cccc(CSc2ccccc2)c1 | > 100 µM | > 100 µM | > 100 µM | 27.3 µM | > 100 µM | > 100 µM | > 100 µM | > 100 µM | > 100 | > 100 µM | > 100 µM | – | – | – | – | – | – | – | – | –
5 | COc1ccc2nc3c([N+](=O)[O-])ccc4c3c(c2c1)NCCN4C | 3.57 µM | 3.16 µM | 4.63 µM | 3.31 µM | 7.63 µM | 23.2 µM | 6.44 µM | 2.6 µM | 51.9 | 12.4 µM | 2.88 µM | – | – | – | – | – | – | – | – | –
6 | Cc1c2cc[n+](C)cc2c(C)c2c1[nH]c1ccccc12 | 15 µM and 10.9 µM | 2.64 µM and 2.76 µM | 12.6 µM and 12.9 µM | 3.6 µM and 3.45 µM | 1.87 µM and 1.88 µM | 12.1 µM | 11 µM and 10.1 µM | 3.24 µM and 4.03 µM | > 100 | 62.7 µM and 71.6 µM | 35.2 µM and 33.6 µM | – | – | – | – | – | – | – | – | –
7 | CC(NCCS(=O)(=O)O)C(=O)O (stereo not drawn) | > 100 µM | > 100 µM | > 100 µM | > 100 µM | > 100 µM | > 100 µM | > 100 µM | > 100 µM | – | > 100 µM | > 100 µM | – | – | – | – | – | – | – | – | –
8 | CCCCCCCCCC[C@@H](O)[C@@H]1CC[C@@H]([C@@H]2CC[C@@H]([C@@H](O)CCCCCCCCCCC(O)CC3=CC(C)OC3=O)O2)O1 (stereo partly drawn) | > 10 µM | > 10 µM | > 10 µM | > 10 µM | > 10 µM | > 10 µM | – | > 10 µM | > 10 | > 10 µM | > 10 µM | – | – | – | – | – | – | – | – | –
9 | c1ccc(N=NNNc2ccc(-c3nc4ccccc4[nH]3)cc2)cc1 | > 100 µM | > 100 µM | – | > 100 µM | – | > 100 µM | > 100 µM | 77.3 µM | > 100 | 94.7 µM | > 100 µM | – | – | – | – | – | – | – | – | –
10 | CN(C)Cc1cc(C(=O)O)cc(CN(C)C)c1O | > 100 µM | > 100 µM | > 100 µM | > 100 µM | > 100 µM | > 100 µM | > 100 µM | > 100 µM | > 100 | > 100 µM | > 100 µM | – | – | – | – | – | – | – | – | –
11 | COc1ccc(-c2cn3ccnc3c(-c3ccc4ncn(C5CCCCC5)c4c3)n2)cc1 | – | – | > 100 µM | 6.15 µM | > 100 µM | > 100 µM | > 100 µM | > 100 µM | 68.9 | – | 4.06 µM | – | 2.92 | 0.424 | 2.38 | 1.35 | 1.18 | 43.1 | 2.99 | 0.399
12 | C=C[C@H]1CN2CC[C@H]1C[C@@H]2[C@@H](O)c1ccnc2ccccc12 | > 100 µM | > 100 µM | – | > 100 µM | > 100 µM | > 100 µM | – | > 100 µM | > 100 | > 100 µM | > 100 µM | – | – | – | – | – | – | – | – | –
13 | O=C(O)C(Cc1cccs1)C(=O)O | > 100 µM | > 100 µM | > 100 µM | > 100 µM | > 100 µM | > 100 µM | > 100 µM | > 100 µM | > 100 | > 100 µM | > 100 µM | – | – | – | – | – | – | – | – | –
14 | Nc1nc(N)c2ncn(CC(CO)CC(c3ccccc3)P(=O)(O)O)c2n1 (stereo not drawn) | – | > 100 µM | > 100 µM | > 100 µM | > 100 µM | > 100 µM | > 100 µM | > 100 µM | > 100 | > 100 µM | > 100 µM | – | – | – | – | – | – | – | – | –
15 | CN(C)c1ccc(C(c2ccc(N(C)C)cc2)c2ccc([N+](=O)[O-])cc2)cc1 | > 100 µM | > 100 µM | > 100 µM | > 100 µM | > 100 µM | > 100 µM | > 100 µM | > 100 µM | > 100 | > 100 µM | > 100 µM | – | – | – | – | – | – | – | – | –
16 | N#CC(c1ccccc1)c1cccc2ccccc12 (stereo not drawn) | > 100 µM | > 100 µM | 81.8 µM | 53.9 µM | 98.8 µM | 66 µM | – | 50.7 µM | > 100 | > 100 µM | > 100 µM | – | – | – | – | – | – | – | – | –
